Test results as given in ChEMBL document CHEMBL2095176, “GSK Tuberculosis Screening Data”.
Converted amounts (≈) assume the structure as drawn.

System: Mycobacterium tuberculosis variant bovis BCG
Assay: microbe, parasite or virus in culture
Type: functional

SMILES	MIC90 [µM]
CC(=O)NCCn1c(Sc2ccnc(N3CCN(c4ccncc4)CC3)n2)nnc1-c1ccccc1	4 (≈ 2.01 µg/mL)
COc1cc(Nc2ccccc2)ccc1NS(=O)(=O)c1c(C)noc1C	2.9 (≈ 1.08 µg/mL)
Cc1ccc2nc(NC(=O)c3cc(C)nc4c3c(C)nn4C(C)C)sc2c1	7.6 (≈ 2.88 µg/mL)
Cc1cc(Oc2ccc(-n3ccnc3)cc2)nc(N2CCN[C@@H](Cc3ccccc3)C2)n1	6.1 (≈ 2.6 µg/mL)
Cc1ccc(-n2ncc3c(SCC(=O)NNC(=O)c4ccco4)ncnc32)cc1	3.6 (≈ 1.47 µg/mL)
COc1ccc(-c2ccc(Nc3cccc(S(=O)(=O)CCNCCc4cccs4)c3)nc2)cn1	7.2 (≈ 3.56 µg/mL)
O=C(c1cnn(C(=O)c2ccco2)c1)c1cc(F)ccc1O	4.2 (≈ 1.26 µg/mL)
O=C(COc1ccc(Br)cc1Cl)Nc1nc(-c2ccccn2)cs1	4.6 (≈ 1.95 µg/mL)
Cc1ccc2nc(C)c(C(=O)NCC(C)C)n2c1	4.8 (≈ 1.18 µg/mL)
CN(Cc1ccccc1)c1ncc(-c2ccc(CNCC3CCCO3)cc2)cn1 (stereo not drawn)	8.7 (≈ 3.38 µg/mL)
O=C(Cc1c(Cl)cccc1Cl)Nc1nc(-c2ccccn2)cs1	9.4 (≈ 3.42 µg/mL)
Cc1cc2nc(C)n(CCCOc3ccccc3)c2cc1C	6.1 (≈ 1.8 µg/mL)
CCCCC1=NN(C(=O)c2ccncc2)C(O)(C(F)(F)F)C1 (stereo not drawn)	5.5 (≈ 1.73 µg/mL)
O=C(Nc1nnc(-c2ccc(Cl)cc2)o1)c1cc(F)cc(F)c1	4.1 (≈ 1.38 µg/mL)
c1cc(COc2ccc(C3=NCCN3)cc2)nc(COc2ccc(C3=NCCN3)cc2)c1	6.1 (≈ 2.61 µg/mL)
COc1ccc(-c2cc(=O)c3cc(OCC(=O)OC(C)C)ccc3o2)cc1	6.2 (≈ 2.28 µg/mL)
COc1ccc2c(ccn2C(=O)OCCC2CCNCC2)c1	4.4 (≈ 1.33 µg/mL)
Cn1cc(C(=O)NCCc2ccccc2)c(=O)c2cc(S(=O)(=O)N3CCCC3)ccc21	4.6 (≈ 2.02 µg/mL)
FC(F)(F)c1ccc2c(N3CCCNCC3)ncc(-c3ccsc3)c2n1	1.8 (≈ 0.681 µg/mL)
O=C(Nc1nc(-c2ccccn2)cs1)C1(c2ccc(Cl)cc2)CC1	3.3 (≈ 1.17 µg/mL)
O=C(Nc1nc(-c2ccccn2)cs1)c1ccc(-c2ccc(F)cc2)s1	3.6 (≈ 1.37 µg/mL)
COc1ccc(N(C(=O)CNc2ccccc2Nc2ccccc2)C2CCCC2)cc1	2.1 (≈ 0.873 µg/mL)
Cc1nc2ccccc2n1CC(O)COc1ccc(NC(=O)c2ccccc2)cc1 (stereo not drawn)	3.9 (≈ 1.57 µg/mL)
Cn1cc(-c2noc(CCN[C@H]3CC[C@H](C)CC3)n2)c2ccccc21	9.4 (≈ 3.18 µg/mL)
Cc1nc2ccccn2c1C(=O)Nc1ccc(C(C)(C)C)cc1	4.9 (≈ 1.51 µg/mL)

SMILES	MIC90 [µM]
COc1ccccc1OCCCCn1c(C2CC2)nc2ccccc21	3 (≈ 1.01 µg/mL)
O=C(Nc1ccc(F)c(Cl)c1)c1cnc(N2CCN(c3ncccn3)CC2)c2ccccc12	7.5 (≈ 3.47 µg/mL)
O=C(Nc1nc(-c2ccccn2)cs1)c1ccco1	4.5 (≈ 1.22 µg/mL)
Cc1ccc(N2C(=O)NC(=O)C(=Cc3ccc[nH]3)C2=O)cc1	8.8 (≈ 2.6 µg/mL)
CS(=O)(=O)Nc1cccc(-c2cnc3[nH]cc(-c4cccc(CCN)c4)c3c2)c1	9.8 (≈ 3.98 µg/mL)
CN(C)c1nc2scc(-c3ccccc3)c2c(=O)o1	1.5 (≈ 0.408 µg/mL)
CS(=O)(=O)c1ccc(C(=O)Nc2nc(-c3ccccn3)cs2)cc1	3.6 (≈ 1.29 µg/mL)
Cc1ccc2nc(SCC(=O)N(C(C)C)C(C)C)[nH]c2c1	9.9 (≈ 3.02 µg/mL)
CCOc1ccc(OCc2ccc(C(=O)NNC(=O)c3ccc([N+](=O)[O-])o3)cc2)cc1	1.6 (≈ 0.681 µg/mL)
COc1ccc(N2CCN(c3ccc(C#N)cc3C(F)(F)F)CC2)c(OC)c1	3.7 (≈ 1.45 µg/mL)
O=C(Nc1cccc(C(=O)N2CCCC2c2nc3ccccc3s2)c1)c1cccs1 (stereo not drawn)	6.9 (≈ 2.99 µg/mL)
COc1ccc(CCNC(=O)c2c(C)nc3ccccn23)cc1	6.9 (≈ 2.13 µg/mL)
Cc1ccc(NC(=O)CCC(=O)NNC(=O)c2cccs2)cc1C	8.3 (≈ 2.87 µg/mL)
O=C(Nc1ccc(C(F)(F)F)cc1)OCC1CCCN2CCCCC12 (stereo not drawn)	6.9 (≈ 2.46 µg/mL)
CC(C)N1CCN(c2nc(CCN3CCN(c4cccc(C(F)(F)F)c4C#N)CC3)cs2)CC1	5.5 (≈ 2.71 µg/mL)
O=C(Nc1nc(-c2ccccn2)cs1)c1ccc(-n2cccn2)cc1	0.7 (≈ 0.243 µg/mL)
Cc1ccc2c(NC(=O)Nc3ccc(N(C)C)cc3)cc(C)nc2c1	5.8 (≈ 1.94 µg/mL)
Cc1ccc(Nc2ccc(C(=O)O)cc2N)cc1	7.9 (≈ 1.91 µg/mL)
O=C(N[C@@H](Cc1ccccc1)C(=O)Nc1ccccc1N1CCOCC1)c1cccs1	3.2 (≈ 1.39 µg/mL)
Cc1cc(CN2CC[C@H](NC(=O)c3ccc(Cl)c(Cl)c3)C2)ccc1OCCN1CCNCC1	7.1 (≈ 3.49 µg/mL)
CC(C)CCN(c1ccc(C#N)c(Cl)c1)[C@H]1CCNC1	2 (≈ 0.584 µg/mL)
CC(c1nc2ccccc2s1)N(C)C(=O)c1cccc(NC(=O)c2cccs2)c1 (stereo not drawn)	0.3 (≈ 0.126 µg/mL)
CC(C)n1cc(CN2CCCC(C(=O)c3ccc(-c4ccccc4)cc3)C2)cn1 (stereo not drawn)	8.9 (≈ 3.45 µg/mL)
Cc1ccc2c(Cl)c(C(=O)NC3=NCCS3)sc2c1	3.8 (≈ 1.18 µg/mL)
Cc1cc(C)n(-c2nc(O)cc(-c3ccccc3)n2)n1	2 (≈ 0.533 µg/mL)

SMILES	MIC90 [µM]
CC1CC(NC(=O)c2ccc(Oc3ccccc3)cc2)CC(C)(C)C1 (stereo not drawn)	9.5 (≈ 3.21 µg/mL)
c1cncc(NCc2ccc(-c3cc4ccncc4cc3OC3CCNCC3)s2)c1	8.3 (≈ 3.46 µg/mL)
NCCCOc1cccc2c(-c3ccncc3)c(-c3cccc(NC(=O)Nc4ccccc4)c3)nn12	7.1 (≈ 3.4 µg/mL)
O=C(NCCNCc1cc(-c2cncc3ccccc23)cs1)c1ccc(Cl)cc1	8.4 (≈ 3.54 µg/mL)
O=C(c1cc2c(s1)CCC2)N1CCN(Cc2ccc3c(c2)OCO3)CC1	9.2 (≈ 3.41 µg/mL)
CCN(CC)CCCn1c(Sc2ccnc(N3CCN(c4ccncc4)CC3)n2)nnc1-c1ccccc1	2.4 (≈ 1.27 µg/mL)
O=C(Nc1ccc(-c2nc3ccccc3o2)cc1)c1cccnc1	4.5 (≈ 1.42 µg/mL)
Oc1cc(CSc2ccc(Cl)cc2)nc(-c2ccccn2)n1	5.3 (≈ 1.75 µg/mL)
NC(=O)c1cc(-c2ccsc2)ccc1OCCOc1ccccc1	2.7 (≈ 0.916 µg/mL)
CCCc1cc(-c2nc(-c3ccc(OC)c(OC)c3)cs2)ccn1	6.7 (≈ 2.28 µg/mL)
CN(C)c1ccc(NC(=O)Nc2ccccc2C(F)(F)F)cc1	6.4 (≈ 2.07 µg/mL)
Cn1c(Sc2ccnc(N3CCN(c4ccncc4)CC3)n2)nnc1C(N)=O	6.9 (≈ 2.74 µg/mL)
COc1ccc(N(C(=O)CNc2ccccc2Nc2ccc(Cl)cc2)C(C)C)cc1	2.6 (≈ 1.1 µg/mL)
O=C(CCc1nc2ccccc2oc1=O)N[C@@H]1CCC(=O)N[C@H]1c1ccsc1	6.4 (≈ 2.54 µg/mL)
O=c1c2sc(-c3ccc(Cl)cc3)cc2ncn1-c1ccc2c(c1)OC[C@H](CN1CCCC1)O2	2.5 (≈ 1.2 µg/mL)
O=C(Nc1ccc(C(F)(F)F)cc1)NC1CCCCC1	4.3 (≈ 1.23 µg/mL)
Cc1cc(NC(=O)COc2ccc(Cl)cc2)n(-c2nc(C)c(C)c(=O)[nH]2)n1	4.8 (≈ 1.86 µg/mL)
CC1CCN(Cc2c(O)ccc3oc(-c4ccco4)cc(=O)c23)CC1	2.6 (≈ 0.882 µg/mL)
Cc1cccc(-c2nc(C(=O)Nc3ccnc4ncnn34)cs2)c1	5.3 (≈ 1.78 µg/mL)
c1ccc(Cc2nn3c(-c4ccccc4)nnc3s2)cc1	8.2 (≈ 2.4 µg/mL)
COc1ccccc1C(=O)N(Cc1cccnc1)Cc1cc2c(C)cc(C)cc2nc1Cl	5.9 (≈ 2.63 µg/mL)
Fc1ccc2[nH]c(-c3cccc(-c4ccc(CNCCN5CCNCC5)cc4)c3)nc2c1	6.7 (≈ 2.88 µg/mL)
CCCOC(=O)COc1ccc2c(=O)c(-c3ccccc3OC)coc2c1	9.8 (≈ 3.61 µg/mL)
Cc1ccc(Cl)c2sc(N(CCN(C)C)C(=O)c3cccc(S(C)(=O)=O)c3)nc12	4.2 (≈ 1.9 µg/mL)
CCC1=NN(C(=O)c2ccncc2)C(O)(c2ccncc2)C1 (stereo not drawn)	6.9 (≈ 2.04 µg/mL)

SMILES	MIC90 [µM]
COc1ccc(CC(=O)Nc2c(-c3cccs3)nc3cc(C)ccn23)cc1	9.2 (≈ 3.47 µg/mL)
c1csc(-c2nnc(Sc3ccnc(N4CCN(c5ccncc5)CC4)n3)n2CCCN2CCOCC2)c1	5.4 (≈ 2.97 µg/mL)
CC(C)Cc1cn(-c2nc(CN3CCCC3)cs2)c2cc(Cl)ccc12	1.9 (≈ 0.711 µg/mL)
O=C(NC1CCN(Cc2ccc(F)cc2)C1)c1sccc1-c1cccc(Cl)c1 (stereo not drawn)	7 (≈ 2.9 µg/mL)
COc1ccc2sc(Nc3nc(C)n(-c4ccccc4)c(=O)n3)nc2c1	9.5 (≈ 3.47 µg/mL)
Cc1cc2c(NC(=O)NC3CCN(c4ccc(C(F)(F)F)cn4)CC3)cccc2c(C)n1	3.1 (≈ 1.37 µg/mL)
c1ccc(-c2nnc(Sc3ccnc(N4CCN(c5ccncc5)CC4)n3)n2CCN2CCOCC2)cc1	4.2 (≈ 2.22 µg/mL)
CCc1ccc(C2CC(C(F)(F)F)n3ncc(C(=O)NCc4cccs4)c3N2)cc1 (stereo not drawn)	8.8 (≈ 3.82 µg/mL)
NC(=O)c1cccc(-c2ccc(OCCCN3CC[C@@H](OCc4ccccc4)C3)cc2)c1	7.5 (≈ 3.23 µg/mL)
CSc1ccc(-c2nnc(NC(=O)c3ccc(Cl)s3)o2)cc1	6.5 (≈ 2.29 µg/mL)
Cc1nnc(SCC(=O)NNC(=O)c2ccco2)nc1O	3 (≈ 0.928 µg/mL)
O=C(CCc1cc2ccccc2o1)NNC(=O)c1cccs1	5.1 (≈ 1.6 µg/mL)
Clc1cc(N2CCNCC2)cc(Cl)c1OCc1ccccc1	2.2 (≈ 0.742 µg/mL)
Cc1cc(Cl)cc2nc(N3CCCNCC3)oc12	6.4 (≈ 1.7 µg/mL)
CN(C)S(=O)(=O)c1ccc(C(=O)Nc2nnc(-c3ccc(Cl)s3)o2)cc1	5.7 (≈ 2.35 µg/mL)
COc1ccc(CCNC(=O)c2nc(-c3ccc(OC)c(OC)c3)no2)cc1OC	1.5 (≈ 0.62 µg/mL)
Cn1cc(-c2noc(/C=C3/CCN4CCCC[C@@H]4C3)n2)c2ccccc21	7.3 (≈ 2.54 µg/mL)
O=C(Nc1nnc(-c2ccc(Cl)cc2)o1)c1ccc(Cl)cc1	2.8 (≈ 0.936 µg/mL)
CN1CCN(c2cc(-c3ccc(F)cc3)nc(-c3ccncc3)n2)CC1	7.9 (≈ 2.76 µg/mL)
Cc1ccc(-c2nnc(NC(=O)c3ccc(F)cc3)o2)cc1C	2.3 (≈ 0.716 µg/mL)
Cc1nnc(NCc2cccc(Cl)c2)c2ccccc12	1.5 (≈ 0.426 µg/mL)
c1ccc2oc(CN3CCC4(CC3)OCCc3sccc34)cc2c1	2.8 (≈ 0.95 µg/mL)
O=C(c1ccc(-c2cccc(OCCN3CCC(c4ccccc4)CC3)c2)cc1)N1CCCC1	4.3 (≈ 1.95 µg/mL)
